According to ChEMBL document CHEMBL3045857, “Monitoring of spirodiclofen susceptibility in field populations of European red mites, Panonychus ulmi (Koch) (Acari: Tetranychidae), and the cross-resistance pattern of a laboratory-selected strain” (2011):
In brackets after ≈: the same amount, converted by molar mass.

Columns and labels:
Assay type in all cases: functional
Panonychus ulmi [1] = experiment: Resistance ratio, LC50 for larvae Panonychus ulmi HS to LC50 for larvae Panonychus ulmi PSR TK
Panonychus ulmi [2] = experiment: Insecticidal activity against Panonychus ulmi HS in plum tree leaf assessed as larvae mortality compound treated by spray application measured after 7 to 8 days treatment
Panonychus ulmi [3] = experiment: Insecticidal activity against Panonychus ulmi PSR-TK in plum tree leaf assessed as mortality at larvae stage compound treated by spray application measured after 7 to 8 days treatment
Panonychus ulmi [4] = experiment: Resistance ratio, LC50 for adult Panonychus ulmi HS to LC50 for adult Panonychus ulmi PSR TK
Panonychus ulmi [5] = experiment: Insecticidal activity against Panonychus ulmi HS in plum tree leaf assessed as mortality at adult stage compound treated by spray application measured after 7 to 8 days treatment
Panonychus ulmi [6] = experiment: Insecticidal activity against Panonychus ulmi PSR-TK in plum tree leaf assessed as mortality at adult stage compound treated by spray application measured after 7 to 8 days treatment
Panonychus ulmi [7] = experiment: Resistance ratio, LC50 for larvae Panonychus ulmi Ge15/09 to LC50 for larvae Panonychus ulmi HS
Panonychus ulmi [8] = experiment: Insecticidal activity against Panonychus ulmi Ge14/09 in plum tree leaf assessed as egg mortality compound treated by spray application measured after 7 to 8 days treatment
Panonychus ulmi [9] = experiment: Resistance ratio, LC50 for larvae Panonychus ulmi Ge13/09 to LC50 for larvae Panonychus ulmi HS
Panonychus ulmi [10] = experiment: Resistance ratio, LC50 for egg Panonychus ulmi Ge16/09 to LC50 for egg Panonychus ulmi HS
Panonychus ulmi [11] = experiment: Insecticidal activity against Panonychus ulmi Ge13/09 in plum tree leaf assessed as egg mortality compound treated by spray application measured after 7 to 8 days treatment
Panonychus ulmi [12] = experiment: Insecticidal activity against Panonychus ulmi Ge16/09 in plum tree leaf assessed as larvae mortality compound treated by spray application measured after 7 to 8 days treatment
Panonychus ulmi [13] = experiment: Insecticidal activity against Panonychus ulmi PSR-TK in plum tree leaf assessed as mortality at egg stage compound treated by spray application measured after 7 to 8 days treatment
Panonychus ulmi [14] = experiment: Resistance ratio, LC50 for egg Panonychus ulmi HS to LC50 for egg Panonychus ulmi PSR TK
Panonychus ulmi [15] = experiment: Insecticidal activity against Panonychus ulmi Ge16/09 in plum tree leaf assessed as egg mortality compound treated by spray application measured after 7 to 8 days treatment
Panonychus ulmi [16] = experiment: Resistance ratio, LC50 for larvae Panonychus ulmi Ge14/09 to LC50 for larvae Panonychus ulmi HS
Panonychus ulmi [17] = experiment: Insecticidal activity against Panonychus ulmi Ge13/09 in plum tree leaf assessed as larvae mortality compound treated by spray application measured after 7 to 8 days treatment
Panonychus ulmi [18] = experiment: Insecticidal activity against Panonychus ulmi Ge14/09 in plum tree leaf assessed as larvae mortality compound treated by spray application measured after 7 to 8 days treatment
Panonychus ulmi [19] = experiment: Resistance ratio, LC50 for larvae Panonychus ulmi Ge16/09 to LC50 for larvae Panonychus ulmi HS
Panonychus ulmi [20] = experiment: Insecticidal activity against Panonychus ulmi Ge15/09 in plum tree leaf assessed as egg mortality compound treated by spray application measured after 7 to 8 days treatment
Panonychus ulmi [21] = experiment: Resistance ratio, LC50 for egg Panonychus ulmi Ge14/09 to LC50 for egg Panonychus ulmi HS
Panonychus ulmi [22] = experiment: Insecticidal activity against Panonychus ulmi HS in plum tree leaf assessed as egg mortality compound treated by spray application measured after 7 to 8 days treatment
Panonychus ulmi [23] = experiment: Insecticidal activity against Panonychus ulmi Ge15/09 in plum tree leaf assessed as larvae mortality compound treated by spray application measured after 7 to 8 days treatment
Panonychus ulmi [24] = experiment: Resistance ratio, LC50 for egg Panonychus ulmi Ge13/09 to LC50 for egg Panonychus ulmi HS
Panonychus ulmi [25] = experiment: Resistance ratio, LC50 for egg Panonychus ulmi Ge15/09 to LC50 for egg Panonychus ulmi HS
Panonychus ulmi [26] = experiment: Resistance ratio, LC50 for adult Panonychus ulmi HS to LC50 for adult Panonychus ulmi GE 16/09

Compound	RatioLC50 (Panonychus ulmi [1])	LC50 (Panonychus ulmi [2]) [µg/mL]	LC50 (Panonychus ulmi [3]) [µg/mL]	RatioLC50 (Panonychus ulmi [4])	LC50 (Panonychus ulmi [5]) [µg/mL]	LC50 (Panonychus ulmi [6]) [µg/mL]	LC50 (Panonychus ulmi [13]) [µg/mL]	RatioLC50 (Panonychus ulmi [14])	LC50 (Panonychus ulmi [22]) [µg/mL]	other results
CCOc1cc(C(C)(C)C)ccc1C1COC(c2c(F)cccc2F)=N1 (stereo not given) [ETOXAZOLE]	10	0.15 (≈ 0.417 µM)	> 10000	–	–	–	–	–	–	–
CCc1nn(C)c(C(=O)NCc2ccc(C(C)(C)C)cc2)c1Cl [TEBUFENPYRAD]	–	–	–	30.3	0.37 (≈ 1.11 µM)	11.2 (≈ 33.5 µM)	–	–	–	–
CCC(C)(C)C(=O)OC1=C(c2ccc(Cl)cc2Cl)C(=O)OC12CCCCC2 [SPIRODICLOFEN]	>7000	1.39 (≈ 3.38 µM)	> 10000	–	–	–	> 10000	56	0.52 (≈ 1.26 µM)	RatioLC50 (Panonychus ulmi [7]): 27; LC50 (Panonychus ulmi [8]): 1.53 µg/mL (≈ 3.72 µM); RatioLC50 (Panonychus ulmi [9]): 12; RatioLC50 (Panonychus ulmi [10]): 1.2; LC50 (Panonychus ulmi [11]): 0.59 µg/mL (≈ 1.43 µM); LC50 (Panonychus ulmi [12]): 59.6 µg/mL (≈ 145 µM); LC50 (Panonychus ulmi [15]): 0.66 µg/mL (≈ 1.6 µM); RatioLC50 (Panonychus ulmi [16]): 33; LC50 (Panonychus ulmi [17]): 12.1 µg/mL (≈ 29.4 µM); LC50 (Panonychus ulmi [18]): 33 µg/mL (≈ 80.2 µM); RatioLC50 (Panonychus ulmi [19]): 59; LC50 (Panonychus ulmi [20]): 0.96 µg/mL (≈ 2.33 µM); RatioLC50 (Panonychus ulmi [21]): 2.9; LC50 (Panonychus ulmi [23]): 27.6 µg/mL (≈ 67.1 µM); RatioLC50 (Panonychus ulmi [24]): 1.1; RatioLC50 (Panonychus ulmi [25]): 1.8
Clc1ccccc1-c1nnc(-c2ccccc2Cl)nn1 [CLOFENTEZINE]	>1800	5.53 (≈ 18.2 µM)	> 10000	–	–	–	> 10000	>160	61.3 (≈ 202 µM)	RatioLC50 (Panonychus ulmi [26]): >3900
C[C@@H]1[C@@H](c2ccc(Cl)cc2)SC(=O)N1C(=O)NC1CCCCC1 [HEXYTHIAZOX]	>20000	0.43 (≈ 1.22 µM)	4.05 (≈ 11.5 µM)	–	–	–	4.32 (≈ 12.2 µM)	>1600	5.99 (≈ 17 µM)	RatioLC50 (Panonychus ulmi [26]): >20000
CCOC(=O)OC1=C(c2cc(C)ccc2C)C(=O)N[C@]12CC[C@@H](OC)CC2 [SPIROTETRAMAT]	3	1.09 (≈ 2.92 µM)	538 (≈ 1440 µM)	–	–	–	–	–	–	–
Cc1cc(C)c(C2=C(OC(=O)CC(C)(C)C)C3(CCCC3)OC2=O)c(C)c1 [SPIROMESIFEN]	30.4	0.13 (≈ 0.351 µM)	3.73 (≈ 10.1 µM)	–	–	–	0.36 (≈ 0.972 µM)	4	1.07 (≈ 2.89 µM)	–
Cc1nn(C)c(/C(OC(=O)C(C)(C)C)=C(\C#N)c2ccc(C(C)(C)C)cc2)c1C [CYENOPYRAFEN]	–	–	–	23.5	0.3 (≈ 0.762 µM)	7.13 (≈ 18.1 µM)	–	–	–	–
COc1ccc(-c2ccccc2)cc1NNC(=O)OC(C)C [BIFENAZATE]	–	–	–	1	1.42 (≈ 4.73 µM)	1.3 (≈ 4.33 µM)	–	–	–	–
CCCCCCCCCCCCC1=C(OC(C)=O)C(=O)c2ccccc2C1=O [ACEQUINOCYL]	–	–	–	3	2.75 (≈ 7.15 µM)	1.3 (≈ 3.38 µM)	–	–	–	–
